Measured values reported in the supplement of paper PMC10307832.

Columns and labels:
Experiment in all cases: relative viability (nuclei count vs DMSO), 5 days (fraction); higher = more cells survive
Entinostat + Palbociclib = compound: Nc1ccccc1NC(=O)c1ccc(CNC(=O)OCc2cccnc2)cc1 [Entinostat] + CC(=O)c1c(C)c2cnc(Nc3ccc(N4CCNCC4)cn3)nc2n(C2CCCC2)c1=O [Palbociclib] (partner 0.5 µM)
Method in brief: (§1)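 Lung cancer cell lines were seeded in 1536-well plates and dosed by pin tool the next day, with either a single drug or a fixed anchor-drug dose combined with five library-drug doses (not always all listed) spaced in √10 steps. Five days later, one step fixed the cells and stained their nuclei (final 0.05% Triton X-100, 1% formaldehyde, 1 ug/ml Hoechst), and nuclei were counted on 4× images. Relative viability is the nuclei count in treated wells divided by the count in vehicle wells, and each value is the median of duplicate plates.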

SGI-1776 + Tozasertib = compound: CN1CCC(CNc2ccc3ncc(-c4cccc(OC(F)(F)F)c4)n3n2)CC1 [SGI-1776] + Cc1cc(Nc2cc(N3CCN(C)CC3)nc(Sc3ccc(NC(=O)C4CC4)cc3)n2)n[nH]1 [Tozasertib] (partner 0.1 µM)
Method in brief: as §1

Entinostat + Decitabine = compound: Nc1ccccc1NC(=O)c1ccc(CNC(=O)OCc2cccnc2)cc1 [Entinostat] + Nc1ncn([C@H]2C[C@H](O)[C@@H](CO)O2)c(=O)n1 [Decitabine] (partner 2 µM)
Method in brief: as §1

Entinostat + Alpelisib = compound: Nc1ccccc1NC(=O)c1ccc(CNC(=O)OCc2cccnc2)cc1 [Entinostat] + Cc1nc(NC(=O)N2CCC[C@H]2C(N)=O)sc1-c1ccnc(C(C)(C)C(F)(F)F)c1 [Alpelisib] (partner 2 µM)
Method in brief: as §1

| Cell Line | relative viability (Entinostat + Palbociclib; first compound 0.02 µM) | relative viability (Entinostat + Palbociclib; first compound 0.06325 µM) | relative viability (Entinostat + Palbociclib; first compound 0.2 µM) | relative viability (Entinostat + Palbociclib; first compound 0.6325 µM) | relative viability (Entinostat + Palbociclib; first compound 2 µM) | relative viability (SGI-1776 + Tozasertib; first compound 0.08 µM) | relative viability (SGI-1776 + Tozasertib; first compound 0.8 µM) | relative viability (SGI-1776 + Tozasertib; first compound 2.53 µM) | relative viability (SGI-1776 + Tozasertib; first compound 8 µM) | relative viability (Entinostat + Decitabine; first compound 0.02 µM) | relative viability (Entinostat + Decitabine; first compound 0.06325 µM) | relative viability (Entinostat + Decitabine; first compound 0.2 µM) | relative viability (Entinostat + Decitabine; first compound 0.6325 µM) | relative viability (Entinostat + Decitabine; first compound 2 µM) | relative viability (Entinostat + Alpelisib; first compound 0.02 µM) | relative viability (Entinostat + Alpelisib; first compound 0.06325 µM) | relative viability (Entinostat + Alpelisib; first compound 0.2 µM) | relative viability (Entinostat + Alpelisib; first compound 0.6325 µM) | relative viability (Entinostat + Alpelisib; first compound 2 µM) |
| --- | --- | --- | --- | --- | --- | --- | --- | --- | --- | --- | --- | --- | --- | --- | --- | --- | --- | --- | --- |
| PC-14 | 0.521 | 0.493 | 0.449 | 0.157 | 0.0723 | 0.618 | 0.522 | 0.452 | 0.0803 | 0.248 | 0.184 | 0.189 | 0.109 | 0.0779 | 1.03 | 0.99 | 0.935 | 0.487 | 0.219 |
| LK-2 | 0.77 | 0.673 | 0.651 | 0.496 | 0.211 | 0.181 | 0.206 | 0.16 | 0.182 | 0.311 | 0.335 | 0.262 | 0.165 | 0.115 | 1.1 | 1.03 | 1.04 | 0.692 | 0.421 |
| NCI-H1651 | 0.549 | 0.535 | 0.617 | 0.533 | 0.45 | 0.619 | 0.642 | 0.31 | 0.344 | 0.666 | 0.824 | 0.609 | 0.558 | 0.19 | 1.08 | 0.979 | 0.994 | 0.748 | 0.372 |
| LC-2-ad | 0.473 | 0.412 | 0.417 | 0.421 | 0.323 | 0.451 | 0.309 | 0.336 | 0.261 | 0.833 | 0.74 | 0.642 | 0.611 | 0.438 | 0.864 | 0.777 | 0.761 | 0.348 | 0.187 |
| NCI-H1734 | 0.385 | 0.375 | 0.402 | 0.347 | 0.256 | 0.245 | 0.226 | 0.246 | 0.219 | 0.555 | 0.483 | 0.464 | 0.451 | 0.298 | 0.765 | 0.779 | 0.681 | 0.737 | 0.581 |
| NCI-H441 | 0.218 | 0.231 | 0.238 | 0.171 | 0.129 | 0.604 | 0.437 | 0.216 | 0.297 | 0.237 | 0.284 | 0.264 | 0.138 | 0.132 | 0.577 | 0.665 | 0.608 | 0.22 | 0.18 |
| NCI-H727 | 0.596 | 0.702 | 0.628 | 0.657 | 0.649 | 0.669 | 0.598 | 0.536 | 0.472 | 0.913 | 1.35 | 1.03 | 0.853 | 0.681 | 0.708 | 0.669 | 0.545 | 0.264 | 0.297 |
| NCI-H23 | 0.568 | 0.661 | 0.507 | 0.509 | 0.283 | 0.367 | 0.295 | 0.282 | 0.205 | 0.32 | 0.344 | 0.3 | 0.268 | 0.234 | 0.773 | 0.666 | 0.82 | 0.674 | 0.364 |
| NCI-H1395 | 0.602 | 0.773 | 0.802 | 0.603 | 0.523 | 0.83 | 0.817 | 0.644 | 0.39 | 0.693 | 0.726 | 0.626 | 0.556 | 0.492 | 1.09 | 1.22 | 1.02 | 0.81 | 0.522 |
| NCI-H460 | 0.112 | 0.0634 | 0.0456 | 0.0231 | 0.0171 | 0.475 | 0.278 | 0.0744 | 0.0448 | 0.438 | 0.372 | 0.203 | 0.0553 | 0.0422 | 0.491 | 0.463 | 0.285 | 0.0307 | 0.0143 |
